Measured values taken from US8921546B2, “Imidazolothiazole compounds for the treatment of disease” (Ambit Biosciences Corporation, priority 2006, dated 2014).
Where a name gives a salt, the structure may show the parent alone. Read-outs that look alike come from different tables or passages of the source.

How the values were obtained:
FLT3 = molecular target: T1, FLT3 (Homo sapiens, UniProt P36888); assay: Binding constant (Kd) measurement, phage-displayed kinase competition binding assay, FLT3
T1 construct: made in house
T1 sequence (P36888 27-993): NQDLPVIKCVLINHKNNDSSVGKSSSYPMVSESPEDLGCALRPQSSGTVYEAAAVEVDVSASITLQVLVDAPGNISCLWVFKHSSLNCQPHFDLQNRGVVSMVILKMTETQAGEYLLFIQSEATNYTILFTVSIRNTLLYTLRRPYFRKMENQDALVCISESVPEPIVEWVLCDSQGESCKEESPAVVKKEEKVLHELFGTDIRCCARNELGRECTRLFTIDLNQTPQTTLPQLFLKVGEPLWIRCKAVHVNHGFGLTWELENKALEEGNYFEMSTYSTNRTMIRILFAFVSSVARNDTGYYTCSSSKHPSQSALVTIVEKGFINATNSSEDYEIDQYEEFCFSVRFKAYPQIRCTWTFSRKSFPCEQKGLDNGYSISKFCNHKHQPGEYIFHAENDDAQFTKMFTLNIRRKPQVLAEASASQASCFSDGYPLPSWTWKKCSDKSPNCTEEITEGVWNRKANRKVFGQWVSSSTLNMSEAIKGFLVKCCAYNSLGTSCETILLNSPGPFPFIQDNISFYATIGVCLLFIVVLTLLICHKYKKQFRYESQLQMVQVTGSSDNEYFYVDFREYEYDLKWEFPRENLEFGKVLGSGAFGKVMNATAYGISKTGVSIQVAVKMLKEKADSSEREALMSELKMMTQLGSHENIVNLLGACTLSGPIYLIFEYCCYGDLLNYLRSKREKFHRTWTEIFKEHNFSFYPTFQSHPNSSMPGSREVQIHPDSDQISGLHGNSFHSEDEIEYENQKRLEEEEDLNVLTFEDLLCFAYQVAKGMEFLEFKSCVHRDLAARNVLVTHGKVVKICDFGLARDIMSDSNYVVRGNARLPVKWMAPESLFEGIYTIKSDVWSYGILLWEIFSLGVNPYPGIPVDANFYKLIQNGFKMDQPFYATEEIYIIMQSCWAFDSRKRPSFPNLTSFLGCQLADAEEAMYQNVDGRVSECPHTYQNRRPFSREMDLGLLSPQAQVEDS
Procedure, shortened: (§1)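 Competition binding used human kinases fused to T7 phage and immobilized ATP-site ligands. Compound binding blocks kinase capture on the solid support. Bound phage-kinase was quantified by plaque assay or qPCR of the phage genome to give Kd.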

MV4-11 cells = assay: Cellular proliferation assay (MTS), MV4-11; assay type: cell-based; conditions: Homo sapiens; MV4-11 cells, 72 hour incubation, MTS; read-out: Cellular Assay MV-proliferation IC50
Procedure, shortened: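 FLT3-ITD MV4-11 cells, 10,000/well in DMEM with 0.5% serum, exposed to compounds 3 days at 37 °C, 5% CO2. Viability read colorimetrically after 2 h MTS tetrazolium reduction; WT-FLT3 RS4-11 cells (20,000/well, RPMI 0.5% serum, 2 days) serve as control.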

KIT = molecular target: T2, KIT (Homo sapiens, UniProt P10721); assay: Binding constant (Kd) measurement, phage-displayed kinase competition binding assay, KIT
T2 construct: made in house
Procedure, shortened: as §1

CSF1R = molecular target: T3, CSF1R (Homo sapiens, UniProt P07333); assay: Binding constant (Kd) measurement, phage-displayed kinase competition binding assay, CSF1R
T3 construct: made in house
Procedure, shortened: as §1

[1] = read-out: Binding Assay FLT3 Kd

T3 sequence (P07333 20-972): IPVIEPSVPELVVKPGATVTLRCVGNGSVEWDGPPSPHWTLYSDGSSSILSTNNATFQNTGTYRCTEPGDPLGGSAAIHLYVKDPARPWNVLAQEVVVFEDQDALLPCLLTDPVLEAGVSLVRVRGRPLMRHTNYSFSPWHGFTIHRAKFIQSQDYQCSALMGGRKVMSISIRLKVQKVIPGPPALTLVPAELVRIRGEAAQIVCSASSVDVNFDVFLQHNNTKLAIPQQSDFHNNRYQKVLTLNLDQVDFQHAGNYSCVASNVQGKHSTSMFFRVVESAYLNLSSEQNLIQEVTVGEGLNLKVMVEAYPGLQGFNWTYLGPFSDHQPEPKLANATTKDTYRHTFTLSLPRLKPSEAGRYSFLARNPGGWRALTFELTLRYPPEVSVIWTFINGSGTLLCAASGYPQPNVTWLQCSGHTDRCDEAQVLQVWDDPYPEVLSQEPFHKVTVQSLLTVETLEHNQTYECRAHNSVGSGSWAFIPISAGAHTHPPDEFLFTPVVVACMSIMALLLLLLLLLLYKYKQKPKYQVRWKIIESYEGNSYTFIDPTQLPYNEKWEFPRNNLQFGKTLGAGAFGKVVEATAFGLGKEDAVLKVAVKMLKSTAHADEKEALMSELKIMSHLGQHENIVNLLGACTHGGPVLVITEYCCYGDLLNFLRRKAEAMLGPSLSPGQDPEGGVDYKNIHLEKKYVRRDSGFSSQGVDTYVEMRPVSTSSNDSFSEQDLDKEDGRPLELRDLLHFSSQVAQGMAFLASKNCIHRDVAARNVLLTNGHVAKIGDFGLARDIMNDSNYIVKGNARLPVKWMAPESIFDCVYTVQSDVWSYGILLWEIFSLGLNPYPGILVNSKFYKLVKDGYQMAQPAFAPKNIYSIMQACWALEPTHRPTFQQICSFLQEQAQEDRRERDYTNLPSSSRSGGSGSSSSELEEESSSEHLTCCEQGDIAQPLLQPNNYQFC
T2 sequence (P10721 26-976): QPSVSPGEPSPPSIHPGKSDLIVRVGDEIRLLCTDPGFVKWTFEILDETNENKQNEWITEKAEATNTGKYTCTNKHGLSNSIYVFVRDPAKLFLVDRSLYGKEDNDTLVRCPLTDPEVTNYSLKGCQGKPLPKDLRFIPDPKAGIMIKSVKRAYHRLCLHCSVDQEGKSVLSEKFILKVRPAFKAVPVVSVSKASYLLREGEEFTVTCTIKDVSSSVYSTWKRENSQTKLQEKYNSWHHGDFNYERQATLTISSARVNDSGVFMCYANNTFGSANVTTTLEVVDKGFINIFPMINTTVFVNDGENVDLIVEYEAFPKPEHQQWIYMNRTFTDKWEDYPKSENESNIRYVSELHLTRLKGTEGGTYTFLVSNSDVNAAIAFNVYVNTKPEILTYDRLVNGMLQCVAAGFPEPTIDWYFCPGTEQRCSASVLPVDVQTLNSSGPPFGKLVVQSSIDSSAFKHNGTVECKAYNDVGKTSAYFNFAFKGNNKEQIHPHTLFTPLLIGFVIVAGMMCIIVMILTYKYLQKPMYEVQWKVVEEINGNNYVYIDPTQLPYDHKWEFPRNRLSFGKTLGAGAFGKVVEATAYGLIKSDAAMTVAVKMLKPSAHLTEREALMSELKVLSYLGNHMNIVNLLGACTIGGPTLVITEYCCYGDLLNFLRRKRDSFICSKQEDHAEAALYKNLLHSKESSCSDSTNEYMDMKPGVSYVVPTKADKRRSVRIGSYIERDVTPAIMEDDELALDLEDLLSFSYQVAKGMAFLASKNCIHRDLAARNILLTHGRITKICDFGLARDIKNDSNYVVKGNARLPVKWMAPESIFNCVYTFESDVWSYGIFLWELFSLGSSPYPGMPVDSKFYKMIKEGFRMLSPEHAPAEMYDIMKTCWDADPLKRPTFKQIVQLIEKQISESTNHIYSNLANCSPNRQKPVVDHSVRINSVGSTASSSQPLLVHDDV

| Kd (FLT3; [1]) [nM] | SMILES | Kd (FLT3) [nM] | IC50 (MV4-11 cells) [nM] | Kd (KIT) [nM] | Kd (CSF1R) [nM] |
| --- | --- | --- | --- | --- | --- |
|  | CCOC(=O)CCc1ccc2c(c1)sc1nc(-c3ccc(NC(=O)Nc4cc(C(C)(C)C)on4)cc3)cn12 [Compound C3, Ethyl 3-{2-[4-({[(5-tert-Butylisoxazol-3-yl)amino]carbonyl}amino)phenyl]imidazo[2,1-b][1,3]benzothiazol-7-yl}propanoate] | < 10 | < 10 | 10 to 100 | > 1000 |
|  | CC(C)(C)c1cc(NC(=O)Nc2ccc(-c3cn4c(n3)sc3cc(C(=O)NCCN5CCCC5)ccc34)cc2)no1 [Compound C21, 2-{4-[3-(5-tert-butyl-isoxazol-3-yl)-ureido]-phenyl}-imidazo[2,1-b][1,3]benzothiazole-7-carboxylic Acid (2-Pyrrolidin-1-yl-ethyl)-amide hydrochloride] | < 10 | < 10 | < 10 | 10 to 100 |
|  | CC(C)(C)c1cc(NC(=O)Nc2ccc(-c3cn4c(n3)sc3cc(CC(=O)NCCN5CCCCC5)ccc34)cc2)no1 [Compound C14, 2-(2-{4-[3-(5-tert-butyl-isoxazol-3-yl)-ureido]-phenyl}-benzo[d]imidazo[2,1-b]thiazol-7-yl)-N-(2-piperidin-1-yl-ethyl)-acetamide hydrochloride] | < 10 | < 10 | < 10 | 10 to 100 |
| < 10 | O=C(Nc1ccc(-c2cn3c(n2)sc2cc(OCCN4CCOCC4)ccc23)cc1)Nc1ccc2c(c1)OCCO2 [Compound F1, 1-(2,3-Dihydro-benzo[1,4]dioxin-6-yl)-3-{4-[7-(2-morpholin-4-yl-ethoxy)-benzo[d]imidazo[2,1-b]thiazol-2-yl]-phenyl}-urea] |  | < 10 | < 10 | 100 to 1000 |
|  | CC(C)(C)c1cc(NC(=O)Nc2ccc(-c3cn4c(n3)sc3cc(CCC(=O)NCCN5CCCC5)ccc34)cc2)no1 [Compound C11, 3-(2-{4-[3-(5-tert-butyl-isoxazol-3-yl)-ureido]-phenyl}-benzo[d]imidazo[2,1-b]thiazol-7-yl)-N-(2-pyrrolidin-1-yl-ethyl)-propionamide hydrochloride] | < 10 | < 10 | < 10 | < 10 |
| 10 to 100 | CN(C(=O)Nc1cc(C(C)(C)C)on1)c1ccc(-c2cn3c(n2)sc2cc(CCCN4CCOCC4)ccc23)cc1 [Compound D2, 3-(5-tert-Butyl-isoxazol-3-yl)-1-methyl-1 {4-[7-(3-morpholin-4-yl-propyl)-benzo[d]imidazo[2,1-b]thiazol-2-yl]-phenyl}-urea] |  | 10 to 100 | < 10 | 10 to 100 |
|  | CCOC(=O)c1ccc2c(c1)sc1nc(-c3ccc(NC(=O)Nc4cc(C(C)(C)C)on4)cc3)cn12 [Compound C26, 2-{4-[3-(5-tert-Butyl-isoxazol-3-yl)-ureido]-phenyl}-imidazo[2,1-b][1,3]benzothiazole-7-carboxylic acid ethyl ester] | < 10 | < 10 | 10 to 100 | 100 to 1000 |
| < 10 | CC(C)(C)c1cc(NC(=O)Nc2ccc(-c3cn4c(n3)sc3ccc(OCCN5CCOCC5)cc34)cc2)no1 [Compound B12, N-(5-tert-butyl-isoxazol-3-yl)-N′-{4-[6-(2-morpholin-4-yl-ethoxy)imidazo[2,1-b][1,3]benzothiazol-2-yl]phenyl}urea hydrochloride] |  | < 10 | 10 to 100 | 100 to 1000 |
|  | CC(C)(C)c1cc(NC(=O)Nc2ccc(-c3cn4c(n3)sc3cc(CCCN5CCCCC5)ccc34)cc2)no1 [Compound D4, N-(5-tert-Butyl-isoxazol-3-yl)-N′-{4-[7-(3-piperidin-1-yl-propyl)imidazo[2,1-b][1,3]benzothiazol-2-yl]phenyl}urea hydrochloride] | < 10 | < 10 | 10 to 100 | 10 to 100 |
| 10 to 100 | Cc1nc(-c2ccc(Cl)cc2)sc1C(=O)Nc1ccc(-c2cn3c(n2)sc2cc(OCCN4CCOCC4)ccc23)cc1 [Compound E4, 2-(4-chloro-phenyl)-4-methyl-thiazole-5-carboxylic acid {4-[7-(2-morpholin-4-yl-ethoxy)-benzo[d]imidazo[2,1-b]thiazol-2-yl]-phenyl}-amide] |  | 10 to 100 | 100 to 1000 | 100 to 1000 |
| < 10 | CC(C)(C)c1cc(NC(=O)Nc2ccc(-c3cn4c(n3)sc3cc(CCCN5CCOCC5)ccc34)cc2)no1 [Compound D3, 1-(5-tert-Butyl-isoxazol-3-yl)-3-{4-[7-(3-morpholin-4-yl-propyl)-benzo[d]imidazo[2,1-b]thiazol-2-yl]-phenyl}-urea] |  | < 10 | < 10 | 10 to 100 |
